Data from article PMC11620503 (Antimicrobial Agents and Chemotherapy, 2024).
In brackets after ≈: the same amount, converted by molar mass. Read-outs that look alike come from different tables or passages of the source.

How the values were obtained:
[1] = tested on: Metallo-carbapenemase-producing Enterobacterales (11); experiment: MIC and MBC testing; type: cell-based; details: 11 metallo-carbapenemase-producing Enterobacterales; fixed BLI concentration (μg/mL) in label
[2] = tested on: 207 Enterobacterales including carbapenem-resistant isolates; experiment: MIC, broth microdilution; type: cell-based
[3] = tested on: MBL-producing isolates (Enterobacterales); experiment: MIC, broth microdilution; type: cell-based; details: Enterobacterales with metallo-carbapenemases (74), cefiderocol 73 isolates
[4] = tested on: Carbapenemase-producing A. baumannii (4); experiment: MIC and MBC testing; type: cell-based, Acinetobacter baumannii; details: 4 carbapenemase-producing A. baumannii; fixed BLI concentration (μg/mL) in label; text: MBC/MIC ratios
96 P. aeruginosa = experiment: MIC, broth microdilution; type: cell-based, Pseudomonas aeruginosa; details: Pseudomonas aeruginosa (96)
[5] = tested on: MEM-nonsusceptible Enterobacterales with serine-carbapenemases; experiment: MIC, broth microdilution; type: cell-based; details: MEM-nonsusceptible Enterobacterales with serine-carbapenemases (58)
[6] = tested on: MEM-nonsusceptible Enterobacterales; experiment: MIC, broth microdilution; type: cell-based; details: MEM-nonsusceptible Enterobacterales (127), cefiderocol 126 isolates
[7] = tested on: Serine-carbapenemase-producing Enterobacterales (6); experiment: MIC and MBC testing; type: cell-based; details: 6 serine-carbapenemase-producing Enterobacterales; fixed BLI concentration (μg/mL) in label
[8] = tested on: 55 isolates of A. baumannii; experiment: MIC, broth microdilution; type: cell-based, Acinetobacter baumannii; details: Acinetobacter baumannii (55)
[9] = tested on: MEM-, imipenem/relebactam-, and ceftolozane/tazobactam-nonsusceptible P. aeruginosa; experiment: MIC, broth microdilution; type: cell-based, Pseudomonas aeruginosa; details: for CLSI MIC interpretation I (intermediate) / CLSI MIC interpretation R (resistant) / CLSI MIC interpretation S (susceptible): CLSI breakpoints, marked c: breakpoints for β-lactam alone; for MIC50 / MIC90: Pseudomonas aeruginosa, fixed concentration (μg/mL) in label; for MIC50: read-out: MIC50; for MIC90: read-out: MIC90
[10] = tested on: serine-carbapenemase-producing isolates (Enterobacterales); experiment: MIC, broth microdilution; type: cell-based; details: Enterobacterales with serine-carbapenemases (80)
[11] = tested on: MEM-nonsusceptible Enterobacterales with metallo-carbapenemases; experiment: MIC, broth microdilution; type: cell-based; details: MEM-nonsusceptible Enterobacterales with metallo-carbapenemases (55), cefiderocol 54 isolates
KPC-3 = KPC-3 (Klebsiella pneumoniae, UniProt Q9F663, H272Y); experiment: Ki app determination (Waley's method); details: read-out: Ki app; KPC-3; means from three independent studies
SHV-12 = SHV-12 (Klebsiella pneumoniae, UniProt P0A3M1, L31Q); experiment: Ki app determination (Waley's method); details: read-out: Ki app; SHV-12; means from three independent studies
OXA-24 = OXA-24 (Acinetobacter baumannii, UniProt Q8RLA6); experiment: Ki app determination (Waley's method); details: read-out: Ki app; OXA-24; means from three independent studies
PDC-11 = PDC-11 (Pseudomonas aeruginosa, UniProt P24735, form not given, species not given); experiment: Ki app determination (Waley's method); details: read-out: Ki app, means from three independent studies
OXA-65 = OXA-65 (Acinetobacter baumannii, UniProt Q58XD3); experiment: Ki app determination (Waley's method); details: read-out: Ki app; OXA-65; means from three independent studies
IMP-1 = IMP-1 (Serratia marcescens, UniProt P52699); experiment: Ki app determination (Waley's method); details: read-out: Ki app; IMP-1; means from three independent studies
CTX-M-14 = CTX-M-14 (Escherichia coli, UniProt Q9L5C7); experiment: Ki app determination (Waley's method); details: read-out: Ki app; CTX-M-14; means from three independent studies
SHV-5 = SHV-5 (Klebsiella pneumoniae, UniProt P0A3M1); experiment: Ki app determination (Waley's method); details: read-out: Ki app; SHV-5; means from three independent studies
SHV-2 = SHV-2 (Klebsiella pneumoniae, UniProt P0A9Z8); experiment: Ki app determination (Waley's method); details: read-out: Ki app; SHV-2; means from three independent studies
CTX-M-27 = CTX-M-27 (Escherichia coli, UniProt Q840M4); experiment: Ki app determination (Waley's method); details: read-out: Ki app; CTX-M-27; means from three independent studies
IMP-6 = IMP-6 (Serratia marcescens, UniProt P52699, S214G); experiment: Ki app determination (Waley's method); details: read-out: Ki app; IMP-6; means from three independent studies
OXA-23 = OXA-23 (Acinetobacter baumannii, UniProt Q9L4P2); experiment: Ki app determination (Waley's method); details: read-out: Ki app; OXA-23; means from three independent studies
CTX-M-15 = CTX-M-15 (Escherichia coli, UniProt Q9EXV5); experiment: Ki app determination (Waley's method); details: read-out: Ki app; CTX-M-15; means from three independent studies
VIM-1 = VIM-1 (Pseudomonas aeruginosa, UniProt A0A0F7KYQ8); experiment: Ki app determination (Waley's method); details: read-out: Ki app; VIM-1; means from three independent studies
KPC-2 = KPC-2 (Klebsiella pneumoniae, UniProt Q9F663); experiment: Ki app determination (Waley's method); details: read-out: Ki app; KPC-2; means from three independent studies
VIM-2 = VIM-2 (Escherichia coli, UniProt Q5U7L7); experiment: Ki app determination (Waley's method); details: read-out: Ki app; VIM-2; means from three independent studies
KPC-38 = KPC-38 (Klebsiella pneumoniae, UniProt Q9F663); experiment: Ki app determination (Waley's method); details: read-out: Ki app, means from three independent studies
ACT-17 = ACT-17 (Enterobacter cloacae complex, UniProt Q8KP20); experiment: Ki app determination (Waley's method); details: read-out: Ki app, means from three independent studies
OXA-48 = OXA-48 (Klebsiella pneumoniae, UniProt Q6XEC0); experiment: Ki app determination (Waley's method); details: read-out: Ki app; OXA-48; means from three independent studies
OXA-66 = OXA-66 (Acinetobacter baumannii, UniProt Q58XD2); experiment: Ki app determination (Waley's method); details: read-out: Ki app; OXA-66; means from three independent studies
OXA-72 = OXA-72 (Acinetobacter baumannii, UniProt Q5XQU0); experiment: Ki app determination (Waley's method); details: read-out: Ki app; OXA-72; means from three independent studies
[12] = All Enterobacterales (207), cefiderocol 205 isolates, CLSI breakpoints, marked c: breakpoints for β-lactam alone, tigecycline: FDA breakpoints
[13] = CLSI breakpoints, marked c: breakpoints for β-lactam alone, tigecycline: FDA breakpoints
[14] = fixed concentration (μg/mL) in label, read-out: MIC50
[15] = fixed concentration (μg/mL) in label, read-out: MIC90
[16] = CLSI breakpoints, marked c: breakpoints for β-lactam alone
[17] = Ceftolozane/tazobactam-nonsusceptible Pseudomonas aeruginosa (45)
[18] = Imipenem/relebactam-nonsusceptible Pseudomonas aeruginosa (43)
[19] = MEM-nonsusceptible Pseudomonas aeruginosa (76)

## CC(C)(O/N=C(\C(=O)N[C@@H]1C(=O)N2C(C(=O)[O-])=C(C[n+]3ccccc3)CS[C@H]12)c1csc(N)n1)C(=O)O [CAZ, ceftazidime]
[1]
  MIC/MBC range: ≥1
[2]; [12]
  CLSI MIC interpretation I (intermediate): 2.4%
  CLSI MIC interpretation R (resistant): 82.1%
  CLSI MIC interpretation S (susceptible): 15.5%
[2]; read-out: MIC50
  MIC50: > 32 µg/mL
[2]; read-out: MIC90
  MIC90: > 32 µg/mL
[3]; [13]
  CLSI MIC interpretation I (intermediate): 0%
  CLSI MIC interpretation R (resistant): 98.6%
  CLSI MIC interpretation S (susceptible): 1.4%
[3]; [14]
  MIC50: > 32 µg/mL
[3]; [15]
  MIC90: > 32 µg/mL
[4]
  MBC/MIC ratio range: 1–2
96 P. aeruginosa; [16]
  CLSI MIC interpretation I (intermediate): 6.3%
  CLSI MIC interpretation R (resistant): 56.3%
  CLSI MIC interpretation S (susceptible): 37.5%
96 P. aeruginosa; [14]
  MIC50: 32 µg/mL (≈ 58.5 µM)
96 P. aeruginosa; [15]
  MIC90: > 32 µg/mL
[5]; [13]
  CLSI MIC interpretation I (intermediate): 1.7%
  CLSI MIC interpretation R (resistant): 82.8%
  CLSI MIC interpretation S (susceptible): 15.5%
[5]; [14]
  MIC50: > 32 µg/mL
[5]; [15]
  MIC90: > 32 µg/mL
[6]; [13]
  CLSI MIC interpretation I (intermediate): 3.1%
  CLSI MIC interpretation R (resistant): 87.4%
  CLSI MIC interpretation S (susceptible): 9.4%
[6]; [14]
  MIC50: > 32 µg/mL
[6]; [15]
  MIC90: > 32 µg/mL
[7]
  MIC/MBC range: 1–256
[8]; [16]
  CLSI MIC interpretation I (intermediate): 1.8%
  CLSI MIC interpretation R (resistant): 94.5%
  CLSI MIC interpretation S (susceptible): 3.6%
[8]; [14]
  MIC50: > 32 µg/mL
[8]; [15]
  MIC90: > 32 µg/mL
[9]; [17]
  CLSI MIC interpretation I (intermediate): 4.4%
  CLSI MIC interpretation R (resistant): 93.3%
  CLSI MIC interpretation S (susceptible): 2.2%
  MIC50: > 32 µg/mL
  MIC90: > 32 µg/mL
[9]; [18]
  CLSI MIC interpretation I (intermediate): 7%
  CLSI MIC interpretation R (resistant): 83.7%
  CLSI MIC interpretation S (susceptible): 9.3%
  MIC50: > 32 µg/mL
  MIC90: > 32 µg/mL
[9]; [19]
  CLSI MIC interpretation I (intermediate): 6.6%
  CLSI MIC interpretation R (resistant): 68.4%
  CLSI MIC interpretation S (susceptible): 25%
  MIC50: 32 µg/mL (≈ 58.5 µM)
  MIC90: > 32 µg/mL
[10]; [13]
  CLSI MIC interpretation I (intermediate): 2.5%
  CLSI MIC interpretation R (resistant): 73.8%
  CLSI MIC interpretation S (susceptible): 23.8%
[10]; [14]
  MIC50: > 32 µg/mL
[10]; [15]
  MIC90: > 32 µg/mL
[11]; [13]
  CLSI MIC interpretation I (intermediate): 0%
  CLSI MIC interpretation R (resistant): 98.2%
  CLSI MIC interpretation S (susceptible): 1.8%
[11]; [14]
  MIC50: > 32 µg/mL
[11]; [15]
  MIC90: > 32 µg/mL

## NCCN[C@H]1CC[C@H](CC(=O)N[C@H]2Cc3cccc(C(=O)O)c3OB2O)CC1 [Tanibobactam, taniborbactam]
KPC-3
  Ki: 0.947 ± 0.259 nM
SHV-12
  Ki: 4.73 ± 0.182 nM
OXA-24
  Ki: 2080 nM
PDC-11
  Ki: 34.6 ± 2.2 nM
OXA-65
  Ki: > 100000 nM
IMP-1
  Ki: > 100000 nM
CTX-M-14
  Ki: 0.0607 ± 0.0257 nM
SHV-5
  Ki: 5.9 ± 1.8 nM
SHV-2
  Ki: 20 ± 2.39 nM
CTX-M-27
  Ki: 0.0344 ± 0.013 nM
IMP-6
  Ki: > 100000 nM
OXA-23
  Ki: > 100000 nM
CTX-M-15
  Ki: 0.0245 ± 0.0103 nM
VIM-1
  Ki: 271 ± 46.7 nM
KPC-2
  Ki: 1.1 ± 0.229 nM
VIM-2
  Ki: 322 ± 50 nM
KPC-38
  Ki: 0.617 ± 0.0841 nM
ACT-17
  Ki: 12.6 ± 1.55 nM
OXA-48
  Ki: 204 ± 31 nM
OXA-66
  Ki: 61700 nM
OXA-72
  Ki: 25200 nM
